Experimental data from patent US11957712B2, “Application of a hydrogel in the preparation of products for the treatment of bacterial infections” (Shaanxi University of Science & Technology, priority 2022, dated 2024).

What was measured:
[1] = system: Staphylococcus aureus; conditions: 100 μM, 12 h treatment, approximately 10^8 CFU/mL
Protocol: To verify the antibacterial activity of ferrous ions against Staphylococcus aureus, the following tests were done: • 1. […] 96-well plate method was used to test the drug sensitivity of 9 ferrous salts against Staphylococcus aureus (approximately 10^8 CFU/mL). After 12 h treatment, the total number of bacterial colonies was determined followed by drop plate method to further investigate the antibacterial effect of iron ions on Staphylococcus aureus.

[2] = system: S. aureus
Protocol: Ferrous sulfate aqueous solutions were configured to final concentrations of 1, 4, 16, and 64 μM, respectively, and ampicillin and vancomycin as positive controls were configured to 100 μg/mL, as well as ultrapure water without ferrous sulfate was set as a blank control group. Then 10^8 CFU/mL of S. aureus and MRSA were prepared. The cell suspensions were added with FeSO4 at final concentrations of 0, 1, 4, 16, 64 μM, respectively, and incubated at 37° C. 200 rpm for 12 h. […] After incubation, S. aureus cells were collected by centrifugation, suspended in 1 mL of normal saline solution, and subjected to 10-fold serial dilutions. Finally, 6 dilutions of each condition were plated on TSB agar, and the colony form units (CFU) were enumerated after incubation at 37° C. overnight.

[3] = system: Listeria monocytogenes; conditions: 16 μM ferrous sulfate, 12 h, FIG. 8B
Protocol: (§1) Ferrous sulfate aqueous solutions were configured to a final concentration of 16 μM; and prepare 10^8 CFU/mL of Escherichia coli, Listeria monocytogenes, Vibrio Parahemolyticus, Enterobacter sakazakii, Staphylococcus aureus and MRSA. A 96-well plate assay was performed to determine the susceptibility of six pathogenic bacteria to ferrous sulfate, and after 12 h treatment, the total number of bacterial colonies was determined in a drop-plate assay to further investigate the effect of ferrous ions on their inhibition.

[4] = system: Enterobacter sakazakii; conditions: 16 μM ferrous sulfate, 12 h, FIG. 8B
Protocol: as §1

[5] = system: Escherichia coli; conditions: 16 μM ferrous sulfate, 12 h, FIG. 8B
Protocol: as §1

[6] = system: Staphylococcus aureus; conditions: 16 μM ferrous sulfate, 12 h, 10^8 CFU/mL
Protocol: as §1

[7] = system: MRSA; conditions: 16 μM ferrous sulfate, 12 h, 10^8 CFU/mL
Protocol: as §1

[8] = system: Vibrio Parahemolyticus; conditions: 16 μM ferrous sulfate, 12 h, FIG. 8B
Protocol: as §1

## ferrous sulfate
[1]
  inhibition of the growth of S. aureus: ~100%
[2]; 37° C., 200 rpm, 12 h, 10^8 CFU/mL
  MBC (lowest concentration required to kill 99.99% cells of S. aureus): 16 µM
[2]; at 16 μM (MBC)
  bactericidal rate: 99.99%
[3]
  bactericidal effect: strong bactericidal effect
[4]
  bactericidal effect: strong bactericidal effect
[5]
  bactericidal effect: strong bactericidal effect
[6]
  survival rate of S. aureus: less than 0.001%
[7]
  survival of MRSA: less than 0.01%
[8]
  bactericidal effect: strong bactericidal effect
